In ChEMBL document CHEMBL1142560, “Furocoumarin glycosides from the leaves of Ficus ruficaulis Merr. var. antaoensis” (J Nat Prod, 2005):

These compounds were tested on PBMC (assay: Antiproliferative activity against human PBMC).
Assay type: cell-based; call rule not given here
`C/C=C/C[C@@H](C)[C@@H](O)[C@H]1C(=O)N[C@@H](CC)C(=O)N(C)CC(=O)N(C)[C@@H](CC(C)C)C(=O)N[C@@H](C(C)C)C(=O)N(C)[C@@H](CC(C)C)C(=O)N[C@@H](C)C(=O)N[C@H](C)C(=O)N(C)[C@@H](CC(C)C)C(=O)N(C)[C@@H](CC(C)C)C(=O)N(C)[C@@H](C(C)C)C(=O)N1C` [CYCLOSPORINE] was tested, and the IC50 was 0.012 µM.
With `O=c1ccc2c(O[C@@H]3O[C@H](CO)[C@@H](O)[C@H](O)[C@H]3O)c(O)c3occc3c2o1` the IC50 was 33.4 µM.

What follows are compounds tested on PBMC (assay: Antiproliferative activity against human PBMC upto 100 uM).
Assay type: cell-based
In the case of `O=c1ccc2c(O[C@@H]3O[C@H](CO)[C@@H](O)[C@H](O)[C@H]3O)c3ccoc3c(O)c2o1`, the Activity is reported as “Not Active”.
For `O=c1ccc2c(O)c(O[C@@H]3O[C@H](CO)[C@@H](O)[C@H](O)[C@H]3O)c3occc3c2o1`, the Activity was “Not Active”.
For `O=c1ccc2c(O)c3ccoc3c(O[C@@H]3O[C@H](CO)[C@@H](O)[C@H](O)[C@H]3O)c2o1`, the Activity was “Not Active”.
In the case of `O=c1ccc2c(O[C@@H]3O[C@H](CO)[C@@H](O)[C@H](O)[C@H]3O)c(O[C@@H]3O[C@H](CO)[C@@H](O)[C@H](O)[C@H]3O)c3occc3c2o1`, the Activity is reported as “Not Active”.
